Structures can show the parent of a compound that is named as a salt. Marks after values point to notes of the source that are not given here.
Assays:
[1] = Stability: HPLC assay before and after drying over phosphorus pentoxide for 1 week; type: physicochemical; details: listed as TRI 50c Lys salt; for Amount: 5 mg in 5 mL
Experimental: An assay of TRI 50c and its sodium and lysine salts before and after drying.
For sample analysis, 5 mg of dried and non-dried material was weighed in a 5 mL volumetric flask and dissolved in 1 mL acetonitrile and filled up with demineralised water to 5 mL.
The quantitative evaluation was performed using an HPLC-PDA method.

[2] = Maximum aqueous solubility, salt shaken in water at 37° C., filtered, UV; type: physicochemical; details: 25 mg of dried salt shaken in water at 37° C.
Thrombin Time (TT) = assay: Single oral doses of TGN 167 tablets in healthy male subjects; type: in vivo
Experimental: TGN 167 tablets described above were administered via the oral route to 10 healthy male subjects as single doses (randomised double blind placebo controlled study). The group consisted of 10 healthy male volunteers, 9 of whom received active compound and one of whom received placebo. An amendment was introduced for the last panel, allowing 15 subjects (instead of 9) to receive a 600 mg dose. The interval between each dose of TGN 167 was one week minimum. The allocation of the placebo was such that each volunteer would only receive placebo once during the course of the study.
Orally administered doses were: 75 mg (one tablet), 150 mg (two tablets), 300 mg (four tablets) and 600 mg (eight tablets).

[3] = Comparative storage stability of sodium and calcium salts (moisture-permeable packaging); type: physicochemical
Text: In both studies the active pharmaceutical ingredient was stored in gray sealed double bags within a PE/PP screw cap closed cylinder.

human α-thrombin = molecular target: T1, human α-thrombin (Homo sapiens, UniProt P00734); details: reported by Deadman et al, J. Med. Chem. 1995; cited from earlier work
T1 construct: 50 μl of human α-thrombin (0.25 NIHμ/ml) was added

[4] = Excretion of administered dose as TRI 50c species; details: in vivo
[5] = Solubility of TRI 50c monosodium salt at different pH values / reconstitution; type: physicochemical
Text: A first class of formulation, therefore, comprises particulate formulations, i.e. powders and granules, for oral administration after reconstitution into a liquid preparation, and preferably into a drinkable preparation. It is generally preferred for the liquid preparation to be a solution rather than a suspension and certain particulate formulations are for dissolving to form a drinking solution. The formulation may be for reconstitution into a suspension or more normally a solution having a volume of from about 50 ml to about 150 ml. The disclosure also contemplates reconstituted volumes of less than about 50 ml or of more than about 150 ml, e.g. of up to about 250 ml and more often of up to about 200 ml.
However, a solution with a pH of 9.5 will often be undesirably distasteful to drink. Accordingly, a pharmaceutically acceptable organic acid may be included in the particulate formulation in an amount selected to reduce the pH to a value at which the solution is more palatable but at which a solution of drinkable quantity (e.g. about 50 ml to about 150 ml) may be formed by reconstituting the particulate formulation. As the organic acid may be mentioned citric acid, tartaric acid or malic acid, for example. In many instances, citric acid is chosen.
In a first series of experiments, this amount of the salt was dissolved in 50 ml water to form a solution of approximately pH 9.5. Dilute aqueous HCl was added to determine how much the pH could be reduced before precipitation occurred.
In a second series of experiments, the same amount of the salt was dissolved in 150 ml water, and citric acid was added. […] Since acid solutions tend to be more palatable than alkaline ones, and citric acid is a common flavouring agent, this behaviour of the salt is highly beneficial. […] In general, it is contemplated that the boronate will be formulated to form a reconstituted solution having a pH of from 4 to 8, e.g. 4 to 7, optionally 5 to 6.

[6] = dry (1 week over phosphorus pentoxide)

COCCC[C@H](NC(=O)[C@@H]1CCCN1C(=O)[C@@H](Cc1ccccc1)NC(=O)OCc1ccccc1)B(O)O [Lysine Salt of TRI50C]
Amount [1, 6]: 813.3 µg/mL
Purity [1, 6]: 90.17 % area
Amount ([1]; non-dried): 809.8 µg/mL
Purity ([1]; non-dried): 92.25 % area

COCCC[C@H](NC(=O)[C@@H]1CCCN1C(=O)[C@@H](Cc1ccccc1)NC(=O)OCc1ccccc1)B([O-])O.COCCC[C@H](NC(=O)[C@@H]1CCCN1C(=O)[C@@H](Cc1ccccc1)NC(=O)OCc1ccccc1)B([O-])O.[Ca+2] [TRI 50c calcium salt]
observation on dissolution [2]: left a white residue of undissolved material
time at which all TT had returned to baseline (Thrombin Time (TT); after oral administration): 10 h
adverse clinical events (general or cardiovascular) (Thrombin Time (TT); oral, any dose, study period of 24 hours): no adverse clinical events
Tri50c (w/w %, LOD corrected) ([3]; T = 0, LOD = loss on drying): (99.7) w/w %
Tri50c (w/w %, LOD corrected) ([3]; T = 1, 25° C./60% r.h.): (101.5) w/w %
Tri50c (w/w %, LOD corrected) ([3]; T = 1, 40° C./75% r.h.): (100.6) w/w %
Tri50c (w/w %, LOD corrected) ([3]; T = 1, −20° C.): (102.7) ^x w/w %
Tri50c (w/w %, LOD corrected) ([3]; T = 3, 25° C./60% r.h.): (104.3) w/w %
Tri50c (w/w %, LOD corrected) ([3]; T = 3, 40° C./75% r.h.): (82.0) w/w %
Tri50c (w/w %, LOD corrected) ([3]; T = 3, −20° C.): (103.0) ^x w/w %
Tri50c (w/w %, LOD corrected) ([3]; T = 12, 25° C./60% r.h.): (94.8 w/w) w/w %

CNC[C@H](O)[C@@H](O)[C@H](O)[C@H](O)CO.COCCC[C@H](NC(=O)[C@@H]1CCCN1C(=O)[C@@H](Cc1ccccc1)NC(=O)OCc1ccccc1)B(O)O [N-METHYL-D-GLUCAMINE SALT OF TRI50C]
observation on dissolution [2]: fully dissolve

COCCC[C@H](NC(=O)[C@@H]1CCCN1C(=O)[C@@H](Cc1ccccc1)NC(=O)OCc1ccccc1)B([O-])O.[K+] [Potassium Salt of TRI50C]
observation on dissolution [2]: left a white residue of undissolved material

COCCCC(NC(=O)C1CCCN1C(=O)C(Cc1ccccc1)NC(=O)OCc1ccccc1)B1OC(C)(C)C(C)(C)O1 [TRI 50b, Cbz-(R)-Phe-Pro-BoroMpg-OPinacol]
Ki (human α-thrombin): 7 nM

COCCC[C@H](NC(=O)[C@@H]1CCCN1C(=O)[C@@H](Cc1ccccc1)NC(=O)OCc1ccccc1)B(O)O.[Na+] [TRI 50c monosodium salt, Cbz-(R)-Phe-(S)-Pro-(R)-Mpg-B(OH)2 monosodium salt]
administered dose excreted as TRI 50c species [4]: 14%
observation on dissolution [2]: left a white residue of undissolved material
concentration of boronate salt solution formed ([5]; at a pH of about 9.5): up to 600 mg/ml
pH of solution ([5]; salt equivalent to 600 mg TRI 50c dissolved in 10 ml water): 9.88
pH of solution ([5]; salt equivalent to 600 mg TRI 50c dissolved in 50 ml water): ~9.5
Tri50c (w/w %, LOD corrected) ([3]; T = 0, LOD = loss on drying): 101.5 w/w %
Tri50c (w/w %, LOD corrected) ([3]; T = 1, 25° C./60% r.h.): 103.6 w/w %
Tri50c (w/w %, LOD corrected) ([3]; T = 1, 40° C./75% r.h.): 94.5 w/w %
Tri50c (w/w %, LOD corrected) ([3]; T = 1, −20° C.): 104.3 w/w %
Tri50c (w/w %, LOD corrected) ([3]; T = 3, 25° C./60% r.h.): 100.4 w/w %
Tri50c (w/w %, LOD corrected) ([3]; T = 3, 40° C./75% r.h.): 52.2 w/w %
Tri50c (w/w %, LOD corrected) ([3]; T = 12, 25° C./60% r.h.): 71.2 w/w %

COCCC[C@H](NC(=O)[C@@H]1CCCN1C(=O)[C@@H](Cc1ccccc1)NC(=O)OCc1ccccc1)B(O)O [Lithium Salt of TRI50C]
observation on dissolution [2]: left a white residue of undissolved material

Reference: patent US20080166396A1, “Boronate Medicaments Suitable for Short Duration Anticoagulation” (Trigen Holdings AG Clareville House, priority 2004, published 2008)
